Experiments:
Karpas299, ALCL = experiment: In vitro assays - tubulysin free drugs, CellTiter-Glo growth inhibition; assay type: cell-based; details: free drug
Method: (§1) In vitro assays. Cells cultured in log-phase growth were seeded for 24 h in 96-well plates containing 150 μL RPMI 1640 supplemented with 20% FBS. Serial dilutions of antibody-drug conjugates in cell culture media were prepared at 4× working concentrations; 50 μL of each dilution was added to the 96-well plates. Following addition of ADC, cells were incubated with test articles for 4 d at 37° C. After 96 h, growth inhibition was assessed by CellTiter-Glo® (Promega, Madison, WI) and luminescence was measured on a plate reader. The IC50 value, determined in triplicate, is defined here as the concentration that results in a 50% reduction in cell growth relative to untreated controls.
(§2) In vitro assays—tubulysin free drugs. Cells were treated for 96 hours with tubulysin ether analogs (40-42) or tubulysin M (7), then assessed for viability as described in the methods.
(§3) The tubulysin ester analogs (133-137) and unsaturated ether analogs (176-179) were tested in vitro for potency relative to tubulysin M (7), following a 96 hour exposure. As shown by IC50 values (nM) of Table 2, Tubulysin esters 133-136 performed comparably to tubulysin M, with similar potencies across of the cell lines.

L428, MDR + HL [1] = experiment: as above; assay type: cell-based; details: free drug
Method: as §1, §2, §3

HL60, AML = experiment: as above; assay type: cell-based
Method: as §1, §2, §3
(§4) A series of analogues of the ethyl ether tubulysin compound TubOEt (41) were synthesized on solid phase lanterns that maintain the ethyl ether substitution, while either varying the residue at the Ile position (203-215) or the Mep position (216-221). Following cleavage from the solid phase, the analogues were obtained in >85% purity and tested without further purification. The compounds were tested in vitro for potency relative to a sample of TubOEt synthesized in parallel on a lantern (41-lantern), following a 96 hour exposure, with IC5O values expressed in nM (Table 3). While in many cases an attenuation in activity was observed relative to 41-lantern, some well-tolerated substitutions were found. […] While this stereochemical preference is not observed when Ile is replaced with O-methyl threonine (207) or O-methyl allothreonine (206), bulkier substituents led to a greater differentiation. […] Replacement of the Mep residue was generally less-well tolerated.

HL60/RV, MDR + AML = experiment: as above; assay type: cell-based
Method: as §1, §2, §3, §4

L540cy, HL [2] = experiment: as above; assay type: cell-based
Method: as §1, §2, §3, §4

HepG2, HCC = experiment: In vitro assays - TubOEt analogues, CellTiter-Glo growth inhibition; assay type: cell-based; details: Homo sapiens, Table 3, lantern-made analogues >85% purity, 96 hour exposure
Method: as §1, §4

Ramos, NHL = experiment: as above; assay type: cell-based; details: Homo sapiens, Table 3, lantern-made analogues >85% purity, 96 hour exposure
Method: as §1, §4

U266 MM = experiment: as above; assay type: cell-based; details: Homo sapiens, U-266; Table 3; lantern-made analogues >85% purity, 96 hour exposure
Method: as §1, §4

[3] = system: HepG2, L540cy, Ramos, U266, HL60, HL60/RV cell lines; experiment: In vitro assays - TubOEt analogues, statements across the cell line panel; assay type: cell-based; details: Table 3 cell lines, 96 hour exposure
Method: as §1, §4

DEL/BVR, MDR + ALCL = details: Table 4; cAC10 ADCs DAR 8, 96 h
Method: (§5) In vitro assays. Cells cultured in log-phase growth were seeded for 24 h in 96-well plates containing 150 μL RPMI 1640 supplemented with 20% FBS. Serial dilutions of antibody-drug conjugates in cell culture media were prepared at 4× working concentrations; 50 μL of each dilution was added to the 96-well plates. […] After 96 h, growth inhibition was assessed by CellTiter-Glo® (Promega, Madison, WI) and luminescence was measured on a plate reader.
(§6) In vitro assays—tubulysin ADCs. ADCs were prepared by t Ell reduction of interchain disulfides to reveal 8-conjugatable cysteines/antibody that were alkylated through Michael addition with the maleimide-containing Drug Linker compounds. […] conjugates hearing quaternized tubulysin ethers with and without a PEG12 side-chain were compared to their tubulysin M analogs.
(§7) Several hydrophilic linker constructs incorporating quaternized tubulysin M were prepared and evaluated in vitro; the results are shown in Table 5. The data (IC50 values in ng/mL) indicate that Conjugates prepared from Drug Linker compounds having quaternized tubulysin M linked via a hydrophilic ValGlu dipeptide with (95) or without (91) a PEG12 side chain, or linked via a hydrophilic glucuronide (82) provide ADCs that are equipotent to the ValAla comparator (15).

L428, MDR + HL [4] = details: Table 4; cAC10 ADCs DAR 8, 96 h
Method: as §5, §6, §7

L540cy, HL [5] = details: Table 4; cAC10 ADCs DAR 8, 96 h
Method: as §5, §6, §7

[6] = Homo sapiens, KARPAS-299, 96 h, Table 1 (examples), 96 hours
[7] = Homo sapiens, L-428, 96 h, Table 1 (examples), 96 hours
[8] = Homo sapiens, HL-60, 96 h, Table 1 (examples), free drug, 96 hours
[9] = L540cy, 96 h, Table 1 (examples), free drug
[10] = Table 1 (examples), free drug, 96 hours
[11] = Homo sapiens, KARPAS-299, 96 h, Table 2, 96 hour exposure
[12] = Homo sapiens, L-428, 96 h, Table 2, 96 hour exposure
[13] = Homo sapiens, HL-60, 96 h, Table 2, free drug, 96 hour exposure
[14] = L540cy, 96 h, Table 2, free drug, 96 hour exposure
[15] = Homo sapiens, HL-60, 96 h, Table 3, lantern-made analogues >85% purity, 96 hour exposure
[16] = L540cy, 96 h, Table 3, lantern-made analogues >85% purity, 96 hour exposure

SMILES: CC[C@H](C)[C@H](NC(=O)[C@H]1CCCCN1C)C(=O)N(C)[C@H](C[C@@H](OC)c1nc(C(=O)N[C@@H](Cc2ccccc2)C[C@H](C)C(=O)O)cs1)C(C)C [Compound 40, (2S,4R)-4-(2-((1R,3R)-3-((2S,3S)—N,3-dimethyl-2-((R)-1-methylpiperidine-2-carboxamido)pentanamido)-1-methoxy-4-methylpentyl)thiazole-4-carboxamido)-2-methyl-5-phenylpentanoic acid]
- IC50 (Karpas299, ALCL; [6]): 0.19 nM
- IC50 (L428, MDR + HL [1]; [7]): 0.5 nM
- IC50 (HL60, AML; [8]): 0.13 nM
- IC50 (HL60/RV, MDR + AML; [8]): 29 nM
- IC50 (L540cy, HL [2]; [9]): 0.12 nM

SMILES: CCCO[C@H](C[C@H](C(C)C)N(C)C(=O)[C@@H](NC(=O)[C@H]1CCCCN1C)[C@@H](C)CC)c1nc(C(=O)N[C@@H](Cc2ccccc2)C[C@H](C)C(=O)O)cs1 [Compound 42, (2S,4R)-4-(2-((1R,3R)-3-((2S,3S)—N,3-dimethyl-2-((R)-1-methylpiperidine-2-carboxamido)pentanamido)-4-methyl-1-propoxypentyl)thiazole-4-carboxamido)-2-methyl-5-phenylpentanoic add]
- IC50 (Karpas299, ALCL; Table 1 (examples), 96 hours): 0.15 nM
- IC50 (L428, MDR + HL [1]; Table 1 (examples), 96 hours): 0.4 nM
- IC50 (HL60, AML; [10]): 0.17 nM
- IC50 (HL60/RV, MDR + AML; [10]): 14 nM
- IC50 (L540cy, HL [2]; [10]): 0.13 nM

SMILES: CC[C@H](C)[C@H](NC(=O)[C@H]1CCCCN1C)C(=O)N(C)[C@H](C[C@@H](OC(=O)C(C)C)c1nc(C(=O)N[C@@H](Cc2ccccc2)C[C@H](C)C(=O)O)cs1)C(C)C [Compound 135, (2S,4R)-4-(2-((1R,3R)-3-((2S,3S)—N,3-dimethyl-2-((R)-1-methylpiperidine-2-carboxamido)pentanamido)-1-(isobutyryloxy)-4-methylpentyl)thiazole-4-carboxamido)-2-methyl-5-phenylpentanoic acid]
- IC50 (Karpas299, ALCL; [11]): 0.02 nM
- IC50 (L428, MDR + HL [1]; [12]): 0.12 nM
- IC50 (HL60, AML; [13]): 0.1 nM
- IC50 (HL60/RV, MDR + AML; [13]): 6 nM
- IC50 (L540cy, HL [2]; [14]): 0.1 nM

SMILES: CCO[C@H](C[C@H](C(C)C)N(C)C(=O)[C@@H](NC(=O)[C@H]1[C@H]2CC[C@H](CC2)N1C)[C@@H](C)CC)c1nc(C(=O)N[C@@H](Cc2ccccc2)C[C@H](C)C(=O)O)cs1 [Compound 218]
- IC50 (HL60, AML; [15]): 24 nM
- IC50 (HL60/RV, MDR + AML; [15]): > 1000 nM
- IC50 (L540cy, HL [2]; [16]): 5 nM
- IC50 (HepG2, HCC): 9 nM
- IC50 (Ramos, NHL): 6 nM
- IC50 (U266 MM): 7 nM
- potency / cytotoxicity of TubOEt analogues, in words [3]: decrease in the observed cytotoxicity

SMILES: CCC(=O)O[C@H](C[C@H](C(C)C)N(C)C(=O)[C@@H](NC(=O)[C@H]1CCCCN1C)[C@@H](C)CC)c1nc(C(=O)N[C@@H](Cc2ccccc2)C[C@H](C)C(=O)O)cs1 [Compound 133, (2S,4R)-4-(2-((1R,3R)-3-((2S,3S)—N,3-dimethyl-2-((R)-1-methylpiperidine-2-carboxamido)pentanamido)-4-methyl-1-(propionyloxy)pentyl)thiazole-4-carboxamido)-2-methyl-5-phenylpentanoic acid]
- IC50 (Karpas299, ALCL; [11]): 0.02 nM
- IC50 (L428, MDR + HL [1]; [12]): 0.04 nM
- IC50 (HL60, AML; [13]): 0.1 nM
- IC50 (HL60/RV, MDR + AML; [13]): 1 nM
- IC50 (L540cy, HL [2]; [14]): 0.06 nM

SMILES: CCO[C@H](C[C@H](C(C)C)N(C)C(=O)[C@@H](NC(=O)[C@H]1[C@@H]2CC[C@@H](C2)N1C)[C@@H](C)CC)c1nc(C(=O)N[C@@H](Cc2ccccc2)C[C@H](C)C(=O)O)cs1 [Compound 219, (2S,4R)-4-(2-((1R,3R)-3-((2S,3S)—N,3-dimethyl-2-((1S,3R,4R)-2-methyl-2-azabicyclo[2.2.1]heptane-3-carboxamido)pentanamido)-1-ethoxy-4-methylpentyl)-thiazole-4-carboxamido)-2-methyl-5-phenylpentanoic acid]
- IC50 (HL60, AML; [15]): 25 nM
- IC50 (HL60/RV, MDR + AML; [15]): > 1000 nM
- IC50 (L540cy, HL [2]; [16]): 6 nM
- IC50 (HepG2, HCC): 19 nM
- IC50 (Ramos, NHL): 8 nM
- IC50 (U266 MM): 8 nM
- potency / cytotoxicity of TubOEt analogues, in words [3]: decrease in the observed cytotoxicity

SMILES: CCCC(=O)O[C@H](C[C@H](C(C)C)N(C)C(=O)[C@@H](NC(=O)[C@H]1CCCCN1C)[C@@H](C)CC)c1nc(C(=O)N[C@@H](Cc2ccccc2)C[C@H](C)C(=O)O)cs1 [Compound 134, (2S,4R)-4-(2-((1R,3R)-1-(butyryloxy)-3-((2S,3S)—N,3-dimethyl-2-((R)-1-methylpiperidine-2-carboxamido)pentanamido)-4-methylpentyl)thiazole-4-carboxamido)-2-methyl-5-phenylpentanoic acid]
- IC50 (Karpas299, ALCL; [11]): 0.011 nM
- IC50 (L428, MDR + HL [1]; [12]): 0.05 nM
- IC50 (HL60, AML; [13]): 0.08 nM
- IC50 (HL60/RV, MDR + AML; [13]): 3 nM
- IC50 (L540cy, HL [2]; [14]): 0.04 nM

SMILES: CCCO[C@H](C[C@H](C(C)C)N(C)C(=O)[C@@H](NC(=O)[C@H]1CCCC[N+]1(C)Cc1ccc(O[C@@H]2O[C@H](C(=O)O)[C@@H](O)[C@H](O)[C@H]2O)c(NC(=O)CCNC(=O)[C@H](CN)N2C(=O)C=CC2=O)c1)[C@@H](C)CC)c1nc(C(=O)N[C@@H](Cc2ccccc2)C[C@H](C)C(=O)O)cs1 (stereo partly drawn) [Compound 58]
- IC50, DEL/BVR, MDR + ALCL (DEL/BVR, MDR + ALCL): 0.01 µg/mL
- IC50, L428, MDR + HL (L428, MDR + HL [4]): 0.117 µg/mL
- IC50, L540cy, HL (L540cy, HL [5]): 0.006 µg/mL

SMILES: CC[C@H](C)[C@H](NC(=O)[C@H]1CCCCN1C)C(=O)N(C)[C@H](C[C@@H](OC(=O)CC(C)C)c1nc(C(=O)N[C@@H](Cc2ccccc2)C[C@H](C)C(=O)O)cs1)C(C)C [Compound 136, (2S,4R)-4-(2-((1R,3R)-3-((2S,3S)—N,3-dimethyl-2-((R)-1-methylpiperidine-2-carboxamido)pentanamido)-4-methyl-1-((3-methylbutanoyl)oxy)pentyl)thiazole-4-carboxamido)-2-methyl-5-phenylpentanoic acid]
- IC50 (Karpas299, ALCL; [11]): 0.02 nM
- IC50 (L428, MDR + HL [1]; [12]): 0.11 nM
- IC50 (HL60, AML; [13]): 0.04 nM
- IC50 (HL60/RV, MDR + AML; [13]): 6 nM
- IC50 (L540cy, HL [2]; [14]): 0.06 nM

SMILES: CC[C@H](C)[C@H](NC(=O)[C@H]1CCCCN1C)C(=O)N(C)[C@H](C[C@@H](OC(C)=O)c1nc(C(=O)N[C@@H](Cc2ccccc2)C[C@H](C)C(=O)O)cs1)C(C)C [Compound 7, tubulysin M, reference compound]
- IC50 (Karpas299, ALCL; [6]): 0.17 nM
- IC50 (Karpas299, ALCL; [11]): 0.04 nM
- IC50 (L428, MDR + HL [1]; [7]): 0.11 nM
- IC50 (L428, MDR + HL [1]; [12]): 0.04 nM
- IC50 (HL60, AML; [8]): 0.3 nM
- IC50 (HL60, AML; [13]): 0.15 nM
- IC50 (HL60/RV, MDR + AML; [8]): 2.2 nM
- IC50 (HL60/RV, MDR + AML; [13]): 1 nM
- IC50 (L540cy, HL [2]; [9]): 0.14 nM
- IC50 (L540cy, HL [2]; [14]): 0.08 nM

Reference: US11793880B2, “Conjugates of quaternized tubulysin compounds” (Seagen Inc., priority 2015, dated 2023)
